# According to patent US5977133A, “Pyridone antibiotic with improved safety profile” (priority 1998, dated 1999):
# How the values were obtained:
# N. gonorrhoeae = assay: In vitro MIC, agar dilution; format: cell-based; details: Neisseria gonorrhoeae
# S. pneumoniae (PenR) = assay: In vitro MIC, agar dilution; format: cell-based; details: Streptococcus pneumoniae
# H. pylori = assay: In vitro MIC, agar dilution; format: cell-based; details: Helicobacter pylori
# M. catarrhalis = assay: In vitro MIC, agar dilution; format: cell-based; details: Moraxella catarrhalis
# E. faecium (VanS) = assay: In vitro MIC, agar dilution; format: cell-based; details: Enterococcus faecium
# Shigella spp. = assay: microbe, parasite or virus in culture; format: cell-based; details: read-out: MIC Range
# Legionella spp. = assay: microbe, parasite or virus in culture; format: cell-based; details: Legionella
# S. pyogenes = assay: In vitro MIC, agar dilution; format: cell-based; details: Streptococcus pyogenes
# Salmonella spp. = assay: In vitro MIC, agar dilution; format: cell-based; details: 23 isolates
# Experimental: (§1) Each plate was inoculated with 1:100 (or 1:10 for slow-growing strains, primarily Micrococcus and Streptococcus) dilutions of up to 32 different microorganisms, using a Steers replicator block calibrated to deliver approximately 10^4 colony forming units (CFU's). The inoculated plates were incubated at from about 35° C. to about 37 ° C. for approximately 20-24 hours. In addition, a control plate using BHI agar containing no test compound was prepared and incubated at the beginning and at the end of each test. The quinolone antibacterial ciprofloxacin was used as a control ("Cntl").
# (§2) The numbers below the microorganism species indicate the nunbers of isolates tested. […] The MIC is defined as the lowest concentration of test compound yielding no growth (a slight haze or sparsely isolated colonies at the inoculum spot) as compared to the growth control containing no test compound.
# E. coli = assay: In vitro MIC, agar dilution; format: cell-based; details: Escherichia coli, 25 isolates
# Experimental: as §1, §2
# M. avium = assay: In vitro MIC, agar dilution; format: cell-based; details: Mycobacterium avium
# P. mirabilis = assay: In vitro MIC, agar dilution; format: cell-based; details: Proteus mirabilis
# S. aureus (CiproR) = assay: In vitro MIC, agar dilution; format: cell-based; details: Staphylococcus aureus
# Klebsiella spp. = assay: In vitro MIC, agar dilution; format: cell-based; details: Klebsiella
# Escherichia coli JUHL = assay: In vivo efficacy, mouse infection (ED50); details: Escherichia coli, in Mus musculus, 168 h
# C. freundii = assay: In vitro MIC, agar dilution; format: cell-based; details: Citrobacter freundii
# [1] = system: ciprofloxacin resistant staphylococcal strains; assay: In vitro MIC, agar dilution (summary in text); format: cell-based
# C. difficile = assay: In vitro MIC, agar dilution; format: cell-based; details: Clostridioides difficile
# Enterococcus spp. (VanR) = assay: In vitro MIC, agar dilution; format: cell-based; details: Enterococcus
# S. epidermidis (CiproS) = assay: In vitro MIC, agar dilution; format: cell-based; details: Staphylococcus epidermidis
# Enterobacter spp. = assay: In vitro MIC, agar dilution; format: cell-based; details: Enterobacter
# E. faecalis (VanS) = assay: In vitro MIC, agar dilution; format: cell-based; details: Enterococcus faecalis
# S. aureus (CiproS) = assay: In vitro MIC, agar dilution; format: cell-based; details: Staphylococcus aureus
# M. pneumoniae = assay: In vitro MIC, agar dilution; format: cell-based; details: Mycoplasmoides pneumoniae, read-out: MIC Range
# S. epidermidis (CiproR) = assay: In vitro MIC, agar dilution; format: cell-based; details: Staphylococcus epidermidis
# H. influenzae = assay: In vitro MIC, agar dilution; format: cell-based; details: Haemophilus influenzae
# [2] = system: staphylococcus aureus NTCC 10649; assay: In vivo efficacy, mouse infection (ED50); details: Staphylococcus aureus, NTCC10649, in Mus musculus, 168 h
# P. aeruginosa (CiproS) = assay: In vitro MIC, agar dilution; format: cell-based; details: Pseudomonas aeruginosa
# [3] = system: Streptococcus pneumoniae 6303; assay: In vivo efficacy, mouse infection (ED50); details: Streptococcus pneumoniae, 6303, in Mus musculus, 168 h
# Providencia spp. = assay: In vitro MIC, agar dilution; format: cell-based
# P. aeruginosa (CiproR) = assay: In vitro MIC, agar dilution; format: cell-based
# S. pneumoniae (CiproR) = assay: In vitro MIC, agar dilution; format: cell-based; details: Streptococcus pneumoniae, read-out: MIC Range
# S. pneumoniae (PenS) = assay: In vitro MIC, agar dilution; format: cell-based; details: Streptococcus pneumoniae
# B. fragilis = assay: In vitro MIC, agar dilution; format: cell-based; details: Bacteroides fragilis
# E. faecium (CiproS) = assay: In vitro MIC, agar dilution; format: cell-based; details: Enterococcus faecium
structure (smiles),measurement,setting,value
"O=C(O)c1cn(C2CC2)c2cc(N3CCNCC3)c(F)cc2c1=O [Ciprofloxacin, ciprofloxacin]",MIC50,N. gonorrhoeae,0.008 mg/L
same,MIC90,N. gonorrhoeae,0.03 mg/L
same,MIC,N. gonorrhoeae; read-out: MIC Range,0.004 to 0.12 mg/L
same,MIC50,S. pneumoniae (PenR),2 mg/L
same,MIC90,S. pneumoniae (PenR),2 mg/L
same,MIC,S. pneumoniae (PenR); read-out: MIC Range,1 to 2 mg/L
same,MIC50,H. pylori,0.5 mg/L
same,MIC90,H. pylori,0.5 mg/L
same,MIC,H. pylori; read-out: MIC Range,0.12 to 0.5 mg/L
same,MIC50,M. catarrhalis,0.03 mg/L
same,MIC90,M. catarrhalis,0.06 mg/L
same,MIC,M. catarrhalis; read-out: MIC Range,0.008 to 0.06 mg/L
same,MIC50,E. faecium (VanS),4 mg/L
same,MIC90,E. faecium (VanS),4 mg/L
same,MIC,E. faecium (VanS); read-out: MIC Range,1 to 4 mg/L
same,MIC,Shigella spp.,0.008 to 0.015 mg/L
same,MIC50,Legionella spp.,0.25 mg/L
same,MIC90,Legionella spp.,0.5 mg/L
same,MIC,Legionella spp.; read-out: MIC Range,0.12 to 0.5 mg/L
same,MIC50,S. pyogenes,0.5 mg/L
same,MIC90,S. pyogenes,1 mg/L
same,MIC,S. pyogenes; read-out: MIC Range,0.25 to 4 mg/L
same,MIC,Salmonella spp.,0.004 to 0.5 mg/L
same,MIC50,Salmonella spp.; read-out: MIC50,0.03 mg/L
same,MIC90,Salmonella spp.; read-out: MIC90,0.03 mg/L
same,MIC,E. coli,0.008 to 0.03 mg/L
same,MIC50,E. coli; read-out: MIC50,0.03 mg/L
same,MIC90,E. coli; read-out: MIC90,0.03 mg/L
same,MIC50,M. avium,16 mg/L
same,MIC90,M. avium,32 mg/L
same,MIC50,P. mirabilis,0.015 mg/L
same,MIC90,P. mirabilis,0.03 mg/L
same,MIC,P. mirabilis; read-out: MIC Range,0.015 to 0.06 mg/L
same,MIC50,S. aureus (CiproR),32 mg/L
same,MIC90,S. aureus (CiproR),128 mg/L
same,MIC50,Klebsiella spp.,0.06 mg/L
same,MIC90,Klebsiella spp.,0.12 mg/L
same,MIC,Klebsiella spp.; read-out: MIC Range,0.004 to 0.5 mg/L
same,ED50,Escherichia coli JUHL; po,4.1 mg/kg
same,ED50,Escherichia coli JUHL; sc,1 mg/kg
same,MIC50,C. freundii,0.015 mg/L
same,MIC90,C. freundii,0.12 mg/L
same,MIC,C. freundii; read-out: MIC Range,0.004 to 0.5 mg/L
same,MIC90,[1],> 128 mg/L
same,MIC50,C. difficile,16 mg/L
same,MIC90,C. difficile,16 mg/L
same,MIC,C. difficile; read-out: MIC Range,16 mg/L
same,MIC50,Enterococcus spp. (VanR),4 mg/L
same,MIC90,Enterococcus spp. (VanR),4 mg/L
same,MIC50,S. epidermidis (CiproS),0.25 mg/L
same,MIC90,S. epidermidis (CiproS),0.25 mg/L
same,MIC,S. epidermidis (CiproS); read-out: MIC Range,0.06 to 0.5 mg/L
same,MIC50,Enterobacter spp.,0.015 mg/L
same,MIC90,Enterobacter spp.,0.03 mg/L
same,MIC,Enterobacter spp.; read-out: MIC Range,0.008 to 0.12 mg/L
same,MIC50,E. faecalis (VanS),2 mg/L
same,MIC90,E. faecalis (VanS),4 mg/L
same,MIC,E. faecalis (VanS); read-out: MIC Range,1 to 4 mg/L
same,MIC50,S. aureus (CiproS),0.25 mg/L
same,MIC90,S. aureus (CiproS),0.5 mg/L
same,MIC,S. aureus (CiproS); read-out: MIC Range,0.06 to 0.5 mg/L
same,MIC,M. pneumoniae,1 to 2 mg/L
same,MIC50,S. epidermidis (CiproR),16 mg/L
same,MIC90,S. epidermidis (CiproR),> 128 mg/L
same,MIC50,H. influenzae,0.015 mg/L
same,MIC90,H. influenzae,0.015 mg/L
same,MIC,H. influenzae; read-out: MIC Range,0.008 to 0.015 mg/L
same,ED50,[2]; po,18.3 mg/kg
same,ED50,[2]; sc,3.1 mg/kg
same,MIC50,P. aeruginosa (CiproS),0.12 mg/L
same,MIC90,P. aeruginosa (CiproS),0.5 mg/L
same,MIC,P. aeruginosa (CiproS); read-out: MIC Range,0.06 to 2 mg/L
same,ED50,[3]; po,> 100 mg/kg
same,ED50,[3]; sc,> 50 mg/kg
same,MIC50,Providencia spp.; Providencia,0.03 mg/L
same,MIC90,Providencia spp.; Providencia,0.25 mg/L
same,MIC,"Providencia spp.; Providencia spp., 28 isolates, read-out: MIC Range",0.015 to 0.25 mg/L
same,MIC50,P. aeruginosa (CiproR); Pseudomonas aeruginosa,64 mg/L
same,MIC90,P. aeruginosa (CiproR); Pseudomonas aeruginosa,128 mg/L
same,MIC90,P. aeruginosa (CiproR); ciprofloxacin resistant P. aeruginosa strains,128 (g/mL
same,MIC,S. pneumoniae (CiproR),4 to 8 mg/L
same,MIC50,S. pneumoniae (PenS),2 mg/L
same,MIC90,S. pneumoniae (PenS),4 mg/L
same,MIC,S. pneumoniae (PenS); read-out: MIC Range,1 to 8 mg/L
same,MIC50,B. fragilis,8 mg/L
same,MIC90,B. fragilis,16 mg/L
same,MIC,B. fragilis; read-out: MIC Range,4 to 32 mg/L
same,MIC50,E. faecium (CiproS),2 mg/L
same,MIC90,E. faecium (CiproS),4 mg/L
same,MIC,E. faecium (CiproS); read-out: MIC Range,2 to 4 mg/L
